# Reference: PubChem BioAssay (NCI)
#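 Step 1: Grow cells in 96-well plates. Step 2: Expose to compound for 48 hours at 5 concentrations. Step 3: Interpolate endpoints linearly; if unreached, use highest concentration. GI50 marks 50% less growth. TGI: total growth inhibition.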
# Columns and labels:
# Test in all cases: NCI anticancer screen, dose series, 48 h
# UACC-62 melanoma = test system: UACC-62 melanoma
# SR leukemia = test system: SR leukemia
# HL-60(TB) leukemia = test system: HL-60(TB) leukemia
# SK-OV-3 ovarian = test system: SK-OV-3 ovarian
# SF-539 CNS = test system: SF-539 CNS
# MOLT-4 leukemia = test system: MOLT-4 leukemia
# SK-MEL-28 melanoma = test system: SK-MEL-28 melanoma
# OVCAR-8 ovarian = test system: OVCAR-8 ovarian
# MDA-MB-231 breast = test system: MDA-MB-231 breast
# M14 melanoma = test system: M14 melanoma
Structure (SMILES),TGI (UACC-62 melanoma) [µM],TGI (SR leukemia) [µM],TGI (HL-60(TB) leukemia) [µM],TGI (SK-OV-3 ovarian) [µM],TGI (SF-539 CNS) [µM],TGI (MOLT-4 leukemia) [µM],TGI (SK-MEL-28 melanoma) [µM],TGI (OVCAR-8 ovarian) [µM],GI50 (MDA-MB-231 breast) [µM],TGI (MDA-MB-231 breast) [µM],GI50 (UACC-62 melanoma) [µM],GI50 (SR leukemia) [µM],GI50 (HL-60(TB) leukemia) [µM],GI50 (SK-OV-3 ovarian) [µM],GI50 (MOLT-4 leukemia) [µM],GI50 (SK-MEL-28 melanoma) [µM],GI50 (OVCAR-8 ovarian) [µM],GI50 (M14 melanoma) [µM],TGI (M14 melanoma) [µM],GI50 (SF-539 CNS) [µM]
CCC1OCCN1C(C)C (stereo unspecified),> 100,> 100,> 100,> 100,> 100,> 100,92.2,> 100,–,–,–,–,–,–,–,–,–,–,–,–
COc1ccc(C2=CC(c3cc(OC)c(OC)c(OC)c3)n3ncnc3N2)cc1 (stereo unspecified),> 100,> 100,0.0612,27,–,> 100,> 100,21.6,0.193,83.5,0.0689,0.0439,0.0252,0.0513,0.171,10.9,0.0763,0.0333,> 100,–
CCOC(=O)CCC1(C(=O)OC)CCCC1=O (stereo unspecified),–,–,> 100,> 100,> 100,> 100,> 100,> 100,–,–,–,–,–,–,–,–,–,–,–,–
CC[C@@]1(OC(=O)CN)C(=O)OCc2c1cc1n(c2=O)Cc2cc3cc(N)ccc3nc2-1,0.0994,–,–,–,0.0126,–,> 100,–,0.769,> 100,< 0.01,–,–,–,< 0.01,0.753,–,< 0.01,0.122,< 0.01
Cc1ccc(NC(=O)CCC(=O)C2CC(=O)CC/C2=N\NC(=O)c2cc3ccccc3cc2O)cc1C (stereo unspecified),33.9,97.4,29.9,> 100,87.3,99.6,> 100,> 100,–,–,–,–,–,–,–,–,–,–,88.9,–
COc1cc(C(c2cc3c(cc2O)OCO3)N2CCCC2)cc(OC)c1OC (stereo unspecified),33.9,–,6.06,> 100,–,20.7,41.4,34,–,31.3,–,–,–,–,–,–,–,–,> 100,–
CC(=O)[CH-]C(=O)c1ccccc1.CC(=O)[CH-]C(=O)c1ccccc1.[O]=[U+2]=[O],> 100,–,80.3,> 100,–,> 100,> 100,> 100,–,–,33.1,–,29.6,68.5,32.3,36.2,35,35.8,> 100,–
CC1OC(=O)N(CCCC=C2SCCCS2)C1=O (stereo unspecified),> 100,–,–,> 100,> 100,> 100,> 100,> 100,–,–,–,–,–,–,–,–,–,–,> 100,–
C/C(=N\NS(=O)(=O)c1ccc(C)cc1)c1ccc[n+]([O-])n1,> 100,> 100,91,> 100,> 100,> 100,> 100,> 100,–,–,–,–,–,–,–,–,–,–,> 100,–
O=C(/C=C/N1CCN(c2cccc(C(F)(F)F)c2)CC1)c1ccc(Cl)cc1Cl,41.8,56,–,98.2,51.3,70.2,43.9,83.4,26.8,59.8,21.4,30.1,–,36.2,28.8,21.1,28.5,17.2,36.1,24.8
CC(C)c1ccc(/C=C(\NC(=O)c2ccccc2)c2nc3ccccc3[nH]2)cc1,> 100,–,–,> 100,> 100,69.9,–,86.9,–,–,–,–,–,–,–,–,–,–,> 100,–
COc1ccc2c(c1O)[C@@]13C=C(O)C(=O)C=C1[C@@H](C2)N(C)CC3,> 100,> 100,> 100,> 100,–,> 100,> 100,> 100,–,> 100,–,–,–,–,–,–,–,–,> 100,–
CC1=C(C#N)C(N)=C2C(C)=C(C#N)C(N)=C12,> 100,> 100,> 100,> 100,> 100,> 100,–,> 100,–,–,–,–,–,–,–,–,–,–,> 100,–
Cc1cc(N(CCC#N)S(=O)(=O)c2ccccc2)ccc1C=O,> 100,> 100,> 100,> 100,> 100,> 100,> 100,> 100,–,–,–,–,–,–,–,–,–,–,> 100,–
CCOC(=O)/C=C1\Nc2ccccc2C(c2ccccc2)=NC1OC(C)=O (stereo unspecified),> 100,> 100,> 100,> 100,> 100,> 100,> 100,> 100,–,–,–,–,–,–,–,–,–,–,> 100,–
COC(=O)C(CC=O)C(=O)C(=O)Nc1cccc(C(F)(F)F)c1 (stereo unspecified),> 100,> 100,> 100,> 100,> 100,> 100,> 100,> 100,–,–,–,–,–,–,–,–,–,–,> 100,–
COc1ccc2cccc(C(=N)c3ccc(C)c4c3CCC4)c2c1,15.8,9.03,9.12,29.9,–,26.1,26.9,24,–,–,–,–,–,–,–,–,–,–,18.6,–
COc1cc2c3c(c1OC)-c1ccccc1C(C(OC(C)=O)c1ccccc1)C3N(C)CC2 (stereo unspecified),> 100,–,> 100,> 100,> 100,> 100,> 100,> 100,–,–,–,–,–,–,–,–,–,–,> 100,–
CC1CCC(O)C(C(O)CC2CC(=O)N(C)C(=O)C2)C1 (stereo unspecified),> 100,> 100,> 100,> 100,> 100,> 100,> 100,> 100,–,–,–,–,–,–,–,–,–,–,> 100,–
O=C(OCc1ccccc1CN1CCOCC1)c1ccc(Br)cc1,> 100,–,–,> 100,> 100,–,> 100,> 100,–,> 100,–,–,–,–,–,–,–,–,> 100,–
CN1CCCC1c1cccnc1.O=C(O)c1ccccc1O.O=C([O-])c1ccccc1[OH2+].O=C([O-])c1ccccc1[OH2+].O=C([O-])c1ccccc1[OH2+].[Mn+2] (stereo unspecified),> 100,–,> 100,> 100,–,> 100,> 100,> 100,> 100,> 100,> 100,–,> 100,> 100,19.9,> 100,> 100,> 100,> 100,–
